# In patent US9127015B2, “Tricyclopyrazole derivatives” (NERVIANO MEDICAL SCIENCES S.R.L., priority 2009, dated 2015):
# Target: ACK1 (Homo sapiens, UniProt Q07912)
# Experiment: Kinase inhibition assay, IC50 (Table A)
# Type: biochemical
# Settings: Enzyme ACK1
# Description: The inhibiting activity of putative kinase inhibitors and the potency of selected compounds is determined through a method of assay based on the use of the Kinase-Glo® Luminescent Kinase Assay (commercially available from Promega corporation and described in Koresawa, M. and Okabe, T. (2004) High-throughput screening with quantitation of ATP consumption: A universal non-radioisotope, homogeneous assay for protein kinase. Assay Drug Dev. Technol. 2, 153-60).
# The inhibitory activity of putative kinase inhibitors and the potency of selected compounds were also determined using a trans-phosphorylation assay.
# Specific peptide or protein substrates are trans-phosphorylated by their specific ser-thr or tyr kinase in the presence of ATP traced with ^33P-γ-ATP, and in the presence of their own optimal buffer and cofactors. At the end of the phosphorylation reaction, more than 98% unlabeled ATP and radioactive ATP is captured by an excess of the ion exchange dowex resin; the resin then settles down to the bottom of the reaction plate by gravity. Supernatant is subsequently withdrawn and transferred into a counting plate, then evaluated by β-counting.
# Reaction conditions are target (enzyme) dependent and thus undergo individual adaptations. Also the buffer conditions may vary depending on the kinase of interest. The assay can be used with virtually any kinase and substrate combination and is suitable for all type of protein kinases, such as ABL, ACK1, AKT1, ALK, AUR1, AUR2, BRK, BUB1, CDC7/DBF4, CDK21CYCA, CHK1, CK2, EEF2K, EGFR1, EphA2, EphB4, ERK2, FAK, FGFR1, FLT3, GSK3beta, Haspin, IGFR1, IKK2, IR, JAK1, JAK2, JAK3, KIT, LCK, LYN, MAPKAPK2, MELK, MET, MNK2, MPSI, MST4, NEK6, NIM1, P38alpha, PAK-4, PDGFR, PDK1, PERK, PIM1, PIM2, PKAalpha, PKCbeta, PLK1, RET, ROS1, SULU1, Syk, TLK2, TRKA, TYK, VEGFR2, VEGFR3, ZAP70.
# Sequence of ACK1 (Q07912 whole entry): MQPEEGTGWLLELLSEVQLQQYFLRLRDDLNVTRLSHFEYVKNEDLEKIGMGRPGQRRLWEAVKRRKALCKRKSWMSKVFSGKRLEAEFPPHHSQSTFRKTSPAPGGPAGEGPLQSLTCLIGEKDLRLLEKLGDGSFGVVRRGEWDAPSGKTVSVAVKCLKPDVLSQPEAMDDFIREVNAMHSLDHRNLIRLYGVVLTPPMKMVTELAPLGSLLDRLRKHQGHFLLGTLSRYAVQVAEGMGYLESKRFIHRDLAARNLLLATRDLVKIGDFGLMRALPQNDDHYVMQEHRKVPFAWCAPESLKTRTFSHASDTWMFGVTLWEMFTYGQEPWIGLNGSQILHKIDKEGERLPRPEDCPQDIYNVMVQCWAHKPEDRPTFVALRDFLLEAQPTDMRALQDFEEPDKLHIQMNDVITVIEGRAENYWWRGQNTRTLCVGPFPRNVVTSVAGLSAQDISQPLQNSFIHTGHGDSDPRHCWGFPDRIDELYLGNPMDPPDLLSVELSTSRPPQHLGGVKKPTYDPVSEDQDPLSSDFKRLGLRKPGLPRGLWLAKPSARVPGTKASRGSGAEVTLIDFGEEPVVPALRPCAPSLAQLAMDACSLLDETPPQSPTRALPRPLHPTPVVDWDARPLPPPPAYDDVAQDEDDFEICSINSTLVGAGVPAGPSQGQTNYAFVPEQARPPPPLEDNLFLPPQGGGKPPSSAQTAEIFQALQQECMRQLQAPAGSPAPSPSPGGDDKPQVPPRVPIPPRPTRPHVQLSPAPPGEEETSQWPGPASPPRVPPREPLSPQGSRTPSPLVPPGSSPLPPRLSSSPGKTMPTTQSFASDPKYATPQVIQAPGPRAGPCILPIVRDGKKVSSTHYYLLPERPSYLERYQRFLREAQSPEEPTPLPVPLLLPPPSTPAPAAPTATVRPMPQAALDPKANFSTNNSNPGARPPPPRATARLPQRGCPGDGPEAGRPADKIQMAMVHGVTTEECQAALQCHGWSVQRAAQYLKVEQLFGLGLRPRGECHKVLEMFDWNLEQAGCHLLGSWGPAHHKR
row,IC50 [µM],SMILES
1,1.92,O=C(NCc1ccncc1)c1cc2n(c1)CCc1c(NC(=O)c3ccccc3Cl)n[nH]c1-2 [Example A5-M1-B25]
2,2.82,O=C(NCC1CC1)c1cc2n(c1)CCCc1c(NC(=O)c3c(Cl)cccc3Cl)n[nH]c1-2 [Example A38-M2-B41]
3,3.16,O=C(NCCN1CCCCC1)c1cc2n(c1)CCc1c(NC(=O)c3ccccc3Cl)n[nH]c1-2 [Example A5-M1-B31]
4,1.94,CC(C)CNC(=O)c1cc2n(c1)CCc1c(NC(=O)c3ccccc3Cl)n[nH]c1-2 [Example A5-M1-B39]
5,3.17,CC(C)CNC(=O)c1cc2n(c1)CCCc1c(NC(=O)C(C)C)n[nH]c1-2 [Example A27-M2-B39]
6,1.41,Cc1ccc(C(=O)Nc2n[nH]c3c2CCCn2cc(C(=O)NCC(C)C)cc2-3)c(C)c1 [Example A35-M2-B39]
7,1.21,CCCN1CCN(C(=O)c2cc3n(c2)CCc2c(NC(=O)c4ccc(C)cc4C)n[nH]c2-3)CC1 [Example A35-M1-B32]
8,1.41,CCN(CC)C(=O)c1cc2n(c1)CCc1c(NC(=O)c3ccccc3C)n[nH]c1-2 [Example A21-M1-B17]
9,3.51,O=C(NCCN1CCCCC1)c1cc2n(c1)CCCc1c(NC(=O)c3ccccc3Cl)n[nH]c1-2 [Example A5-M2-B31]
10,1.38,CCCN1CCN(C(=O)c2cc3n(c2)CCc2c(NC(=O)c4ccccc4Cl)n[nH]c2-3)CC1 [Example A5-M1-B32]
11,5.54,Cc1cc(C)c(C(=O)Nc2n[nH]c3c2CCn2cc(C(=O)N4CCC(N5CCCCC5)CC4)cc2-3)c(C)c1 [Example A39-M1-B34]
12,2.85,Cc1ccc(C(=O)Nc2n[nH]c3c2CCn2cc(C(=O)NCC(C)C)cc2-3)c(C)c1 [Example A35-M1-B39]
13,2.45,Cc1ccccc1C(=O)Nc1n[nH]c2c1CCn1cc(C(=O)NCC3CC3)cc1-2 [Example A21-M1-B41]
14,3.82,COCCNC(=O)c1cc2n(c1)CCCc1c(NC(=O)c3ccc(C)cc3C)n[nH]c1-2 [Example A35-M2-B33]
15,3.06,CCCN1CCN(C(=O)c2cc3n(c2)CCc2c(NC(=O)c4ccccc4F)n[nH]c2-3)CC1 [Example A20-M1-B32]
16,3.98,C=CCNC(=O)c1cc2n(c1)CCCc1c(NC(=O)c3ccc(C)cc3C)n[nH]c1-2 [Example A35-M2-B36]
17,3.25,CC(C)NC(=O)c1cc2n(c1)CCc1c(NC(=O)c3ccccc3Cl)n[nH]c1-2 [Example A5-M1-B10]
18,2.47,COCCNC(=O)c1cc2n(c1)CCCc1c(NC(=O)c3ccccc3Cl)n[nH]c1-2 [Example A5-M2-B33]
19,0.55,CC(C)CNC(=O)c1cc2n(c1)CCCc1c(NC(=O)c3ccccc3Cl)n[nH]c1-2 [Example A5-M2-B39]
20,2.16,O=C(Nc1n[nH]c2c1CCn1cc(C(=O)N3CCSCC3)cc1-2)c1ccccc1Cl [Example A5-M1-B38]
21,5.91,Cc1ccc(C(=O)Nc2n[nH]c3c2CCn2cc(C(=O)N4CCOCC4)cc2-3)c(C)c1 [Example A35-M1-B7]
22,2.2,Cc1ccc(C(=O)Nc2n[nH]c3c2CCn2cc(C(=O)N4CCCCC4)cc2-3)c(C)c1 [Example A35-M1-B42]
23,2.16,CCN(CC)C(=O)c1cc2n(c1)CCc1c(NC(=O)c3ccccc3Cl)n[nH]c1-2 [Example A5-M1-B17]
24,1.43,O=C(Nc1n[nH]c2c1CCn1cc(C(=O)N3CCOCC3)cc1-2)c1ccccc1Cl [Example A5-M1-B7]
25,0.74,C=CCNC(=O)c1cc2n(c1)CCCc1c(NC(=O)c3ccccc3Cl)n[nH]c1-2 [Example A5-M2-B36]
26,0.75,Cc1cc(C)c(C(=O)Nc2n[nH]c3c2CCn2cc(C(=O)N4CCCC4)cc2-3)c(C)c1 [Example A39-M1-B8]
27,4.71,O=C(NC1CC1)c1cc2n(c1)CCc1c(NC(=O)c3ccccc3Cl)n[nH]c1-2 [Example A5-M1-B30]
28,6.56,Cc1ccc(C(=O)Nc2n[nH]c3c2CCn2cc(C(=O)NC4CC4)cc2-3)c(C)c1 [Example A35-M1-B30]
29,1.56,Cc1ccccc1C(=O)Nc1n[nH]c2c1CCCn1cc(C(=O)NCC3CC3)cc1-2 [Example A21-M2-B41]
